# Measured values reported in article PMC11873616 (Acta Pharmaceutica Sinica. B, 2024).
# Experiments:
# IEC6 cells [1] = test: Lactate determination in cell culture supernatant; assay type: cell-based, rat; conditions: TGFβ1 10 ng/mL, 2DG 1 mmol/L, 7 days, n = 6
# IEC6 cells [2] = test: Fibrosis/EMT-related gene and protein expression in TGFβ1-induced EMT cell model; assay type: cell-based, rat; conditions: for expression of fibrotic genes and proteins (Vimentin, αSMA): TGFβ1, oxamate 20 mmol/L, DCA 20 mmol/L or rotenone 10 nmol/L
# IEC6 cells [3] = test: Glycolysis and metabolic gene expression in TGFβ1-induced cells; assay type: cell-based, rat; conditions: TGFβ1 + 2DG vs TGFβ1, n = 7–8
# IEC6 cells [4] = test: Histone lactylation; assay type: cell-based, rat; conditions: exogenous lactate, Western blot, n = 3
# Smad2 or Smad3 = test: Smad2/Smad3 phosphorylation after lactate treatment; assay type: cell-based
smiles,measurement,setting,value
"O=CC[C@@H](O)[C@H](O)[C@H](O)CO [Peptide 2DG, 2-Deoxy-D-glucose]",lactate levels (TGFβ1-mediated extracellular lactate production),IEC6 cells [1],substantial reduction
same,expression of fibrotic genes and proteins,"IEC6 cells [2]; TGFβ1 10 ng/mL, 2DG 1 mmol/L, 7 days",substantial reduction
same,glycolysis (GSEA-KEGG of gene expression),IEC6 cells [3],effectively inhibited glycolysis
NC(=O)C(=O)O [oxamate],"expression of fibrotic genes and proteins (Vimentin, αSMA)",IEC6 cells [2],more pronounced reduction
CC(O)C(=O)O (stereo not drawn) [lactate],expression of fibrotic genes after lactate stimulation (qRT-PCR),"IEC6 cells [2]; lactate 10 mmol/L for 72 h, no TGFβ1, n = 6",significantly elevated
same,"site-specific histone lactylation (H2BK16la, H3K9la, H3K18la, H4K5la and H4K12la)",IEC6 cells [4],induced overwhelming lactylation modifications
same,phosphorylation of Smad2 or Smad3,Smad2 or Smad3,did not alter
C=C(C)[C@H]1Cc2c(ccc3c2O[C@@H]2COc4cc(OC)c(OC)cc4[C@@H]2C3=O)O1 [rotenone],"expression of fibrotic genes and proteins (Vimentin, αSMA)",IEC6 cells [2],increased the expression of fibrotic genes
"O=C(O)C(Cl)Cl [DCA, sodium dichloroacetate]","expression of fibrotic genes and proteins (Vimentin, αSMA)",IEC6 cells [2],more pronounced reduction
